Reference: ChEMBL document CHEMBL1201862, “PubChem BioAssay data set” (2004)
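Compound exposure: 48 hours, 5 concentrations, 96-well plates. GI50 marks 50% less growth.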 The source made the active and inactive calls. Cut-off read from the data, not from the text of the source: active = GI50 up to about 1.1 µM and inactive = higher.

What was measured:
Assay in all cases: NCI tumour cell line growth inhibition, 48 h
[1] = tested on: 786-0
[2] = tested on: SK-OV-3
[3] = tested on: SN12C
[4] = tested on: NCI-H460
[5] = tested on: OVCAR-8
[6] = tested on: MCF7
[7] = tested on: LOX IMVI
[8] = tested on: SF-295
[9] = tested on: T47D
[10] = tested on: UACC-257
[11] = tested on: HT-29
[12] = tested on: UO-31
[13] = tested on: SF-539
[14] = tested on: MDA-N
[15] = tested on: SF-268
[16] = tested on: PC-3
[17] = tested on: BT-549
[18] = tested on: MDA-MB-435
[19] = tested on: HCT-116
[20] = tested on: NCI/ADR-RES
[21] = tested on: HCC 2998
[22] = tested on: OVCAR-4
[23] = tested on: TK-10
[24] = tested on: CAKI-1
[25] = tested on: SNB-75
[26] = tested on: SNB-19
[27] = tested on: SK-MEL-5
[28] = tested on: Malme-3M
[29] = tested on: K562
[30] = tested on: HCT-15
[31] = tested on: MOLT-4
[32] = tested on: OVCAR-3
[33] = tested on: U-251
[34] = tested on: M14
[35] = tested on: CCRF-CEM
[36] = tested on: SW-620
[37] = tested on: Hs-578T
[38] = tested on: A549
[39] = tested on: RPMI-8226
[40] = tested on: A498
[41] = tested on: HOP-92
[42] = tested on: NCI-H23
[43] = tested on: NCI-H522
[44] = tested on: SR
[45] = tested on: SK-MEL-2
[46] = tested on: OVCAR-5
[47] = tested on: IGROV-1
[48] = tested on: HL-60
[49] = tested on: ACHN
[50] = tested on: HOP-62
[51] = tested on: UACC-62
[52] = tested on: MDA-MB-231
[53] = tested on: KM12
[54] = tested on: DU-145
[55] = tested on: EKVX
[56] = tested on: COLO 205
[57] = tested on: NCI-H226
[58] = tested on: SK-MEL-28
[59] = tested on: RXF 393

C=C1[C@H](OC(=O)C(C)C)[C@@H](OC(C)=O)[C@@H](OC(C)=O)C(C)(C)[C@@H]2O[C@H]2[C@@H](C)C(=O)[C@@]2(OC(C)=O)C[C@@](C)(OC(C)=O)[C@H](OC(C)=O)[C@@H]2[C@H]1OC(C)=O
GI50 [1]: > 100000 nM (inactive)
GI50 [2]: > 100000 nM (inactive)
GI50 [3]: > 100000 nM (inactive)
GI50 [4]: > 100000 nM (inactive)
GI50 [5]: > 100000 nM (inactive)
GI50 [6]: > 100000 nM (inactive)
GI50 [7]: > 100000 nM (inactive)
GI50 [8]: > 100000 nM (inactive)
GI50 [9]: > 100000 nM (inactive)
GI50 [10]: > 100000 nM (inactive)
GI50 [11]: > 100000 nM (inactive)
GI50 [12]: 61900 nM (inactive)
GI50 [13]: > 100000 nM (inactive)
GI50 [14]: > 100000 nM (inactive)
GI50 [15]: > 100000 nM (inactive)
GI50 [16]: > 100000 nM (inactive)
GI50 [17]: > 100000 nM (inactive)
GI50 [18]: > 100000 nM (inactive)
GI50 [19]: > 100000 nM (inactive)
GI50 [20]: > 100000 nM (inactive)
GI50 [21]: > 100000 nM (inactive)
GI50 [22]: > 100000 nM (inactive)
GI50 [23]: > 100000 nM (inactive)
GI50 [24]: > 100000 nM (inactive)
GI50 [25]: 690 nM (active)
GI50 [26]: > 100000 nM (inactive)
GI50 [27]: > 100000 nM (inactive)
GI50 [28]: > 100000 nM (inactive)
GI50 [29]: > 100000 nM (inactive)
GI50 [30]: > 100000 nM
GI50 [31]: > 100000 nM (inactive)
GI50 [32]: > 100000 nM (inactive)
GI50 [33]: > 100000 nM (inactive)
GI50 [34]: > 100000 nM (inactive)
GI50 [35]: > 100000 nM (inactive)
GI50 [36]: > 100000 nM (inactive)
GI50 [37]: > 100000 nM (inactive)
GI50 [38]: > 100000 nM (inactive)
GI50 [39]: > 100000 nM (inactive)
GI50 [40]: > 100000 nM (inactive)
GI50 [41]: > 100000 nM (inactive)
GI50 [42]: > 100000 nM (inactive)
GI50 [43]: > 100000 nM (inactive)
GI50 [44]: > 100000 nM (inactive)
GI50 [45]: > 100000 nM (inactive)
GI50 [46]: > 100000 nM (inactive)
GI50 [47]: > 100000 nM (inactive)
GI50 [48]: > 100000 nM (inactive)
GI50 [49]: > 100000 nM (inactive)
GI50 [50]: > 100000 nM (inactive)
GI50 [51]: > 100000 nM (inactive)
GI50 [52]: > 100000 nM (inactive)
GI50 [53]: > 100000 nM (inactive)
GI50 [54]: > 100000 nM (inactive)
GI50 [55]: > 100000 nM (inactive)
GI50 [56]: > 100000 nM (inactive)
GI50 [57]: > 100000 nM (inactive)

COc1cc2cc(C(=O)N3CC(CCl)c4c3cc(N(C)C)c3ccccc43)[nH]c2c(OC)c1OC (stereo not given)
GI50 [1]: < 10 nM (active)
GI50 [2]: 13.7 nM (active)
GI50 [3]: < 10 nM (active)
GI50 [4]: < 10 nM (active)
GI50 [5]: < 10 nM (active)
GI50 [6]: < 10 nM (active)
GI50 [7]: < 10 nM (active)
GI50 [8]: < 10 nM (active)
GI50 [9]: < 10 nM (active)
GI50 [10]: 27.3 nM (active)
GI50 [11]: < 10 nM (active)
GI50 [12]: < 10 nM (active)
GI50 [13]: 13.1 nM (active)
GI50 [14]: 16.9 nM (active)
GI50 [15]: < 10 nM (active)
GI50 [16]: < 10 nM (active)
GI50 [17]: 103 nM (active)
GI50 [18]: 14.6 nM (active)
GI50 [19]: < 10 nM (active)
GI50 [20]: < 10 nM (active)
GI50 [21]: 10.1 nM (active)
GI50 [22]: 16.3 nM (active)
GI50 [23]: 10.8 nM (active)
GI50 [24]: < 10 nM (active)
GI50 [25]: < 10 nM (active)
GI50 [26]: 12.4 nM (active)
GI50 [27]: < 10 nM (active)
GI50 [28]: 32.1 nM (active)
GI50 [29]: < 10 nM (active)
GI50 [30]: < 11.5 nM
GI50 [31]: < 10 nM (active)
GI50 [32]: 12.7 nM (active)
GI50 [58]: 48.3 nM (active)
GI50 [33]: < 10 nM (active)
GI50 [34]: < 10 nM (active)
GI50 [35]: < 10 nM (active)
GI50 [36]: 10.7 nM (active)
GI50 [37]: 19.9 nM (active)
GI50 [38]: < 10 nM (active)
GI50 [39]: 14.4 nM (active)
GI50 [40]: 12.3 nM (active)
GI50 [41]: 41.7 nM (active)
GI50 [42]: < 10 nM (active)
GI50 [43]: < 10 nM (active)
GI50 [44]: < 10 nM (active)
GI50 [45]: < 10 nM (active)
GI50 [46]: < 10.8 nM (active)
GI50 [47]: 11.1 nM (active)
GI50 [49]: < 10 nM (active)
GI50 [50]: < 10 nM (active)
GI50 [59]: 13.7 nM (active)
GI50 [51]: < 10 nM (active)
GI50 [52]: 37.8 nM (active)
GI50 [53]: 11.7 nM (active)
GI50 [54]: < 10 nM (active)
GI50 [55]: < 10 nM (active)
GI50 [56]: 12 nM (active)
GI50 [57]: 13.2 nM (active)
